These results are taken from ChEMBL document CHEMBL3616439, “Synthesis, α-glucosidase inhibitory and molecular docking studies of prenylated and geranylated flavones, isoflavones and chalcones” (Bioorg Med Chem Lett, 2015).

The nature of assay [1]: Inhibition of baker's yeast alpha-glucosidase using p-nitrophenyl-alpha-D-glucopyranoside as substrate after 30 mins by spectrophotometric analysis. The arrangement: species or system Saccharomyces cerevisiae.
In assay [2] the test system is Saccharomyces cerevisiae. The assay can be described thus: Potency index, ratio of acarbose IC50 to compound IC50 for baker's yeast alpha-glucosidase.
The subject of assay [3] is Saccharomyces cerevisiae. The assay can be described thus: Competitive inhibition of baker's yeast alpha-glucosidase using p-nitrophenyl-alpha-D-glucopyranoside as substrate at 1 to 2 uM preincubated for 30 mins followed by substrate addition by Lineweaver-Burk plot analysis.
Assay [4] has as its system Saccharomyces cerevisiae. The assay can be described thus: Competitive inhibition of baker's yeast alpha-glucosidase using p-nitrophenyl-alpha-D-glucopyranoside as substrate at 1.5 to 2 uM preincubated for 30 mins followed by substrate addition by Lineweaver-Burk plot analysis.
The subject of assay [5] is Saccharomyces cerevisiae. The assay can be described thus: Mixed-type inhibition of baker's yeast alpha-glucosidase using p-nitrophenyl-alpha-D-glucopyranoside as substrate at 4 to 6 uM preincubated for 30 mins followed by substrate addition by Lineweaver-Burk plot analysis.

pIC50: −log10 of the molar value. Calls of active or inactive are those of the source. The rule behind the calls is not given here.

Regarding `COc1ccc(-c2coc3c(C/C=C(\C)CCC=C(C)C)c(OC)cc(OC)c3c2=O)cc1`, the pIC50 in assay [1] is below 4.00. Take `CC(C)=CCC/C(C)=C/Cc1cc(C(=O)/C=C/c2ccc(O)cc2)c(O)c(C/C=C(\C)CCC=C(C)C)c1O`: the Ratio IC50 with Saccharomyces cerevisiae [2] was found to be 50. The pIC50 in assay [1] was 6.05. Moreover, the inhibition entry in the assay on Saccharomyces cerevisiae [3] was “Active”. In the case of `CC(C)=CCC/C(C)=C/Cc1c(O)c(CC=C(C)C)cc(C(=O)/C=C/c2ccc(O)cc2)c1O`, in assay [1], the pIC50 was 4.94. On the same count and under the same terms, the same measure for `O=C(/C=C/c1ccc(O)cc1)c1ccc(O)cc1O` [ISOLIQUIRITIGENIN]: below 4.00; for `CC(C)=CCc1cc(C(=O)/C=C/c2ccc(O)cc2)c(O)cc1O` [BROUSSOCHALCONE B]: 5.28; for `CC(C)=CCC/C(C)=C/Cc1cc(C(=O)/C=C/c2ccc(O)cc2)c(O)c(CC=C(C)C)c1O`: 5.05.

`CC(C)=CCC/C(C)=C/Cc1cc(C(=O)/C=C/c2ccc(O)cc2)c(O)cc1O` showed a pIC50 in assay [1] of 4.79.

In assay [1], `CC(C)=CCc1cc(C(=O)/C=C/c2ccc(O)cc2)c(O)c(CC=C(C)C)c1O` [MEDICAGENIN] gave a pIC50 of 5.16. With `COc1ccc(/C=C/C(=O)c2cc(CC=C(C)C)c(OC)cc2OC)cc1`, the pIC50 in assay [1] was below 4.00. Take `CC(C)=CCc1c(O)cc(O)c2c(=O)c(-c3ccc(O)cc3)coc12`: the pIC50 in assay [1] is below 4.00. `O=c1c(-c2ccc(O)cc2)coc2cc(O)cc(O)c12` [GENISTEIN] gave a pIC50 in assay [1] of 4.30. Take `CC(C)=CCc1c(O)cc(O)c2c(=O)c(O)c(-c3ccc(O)c(O)c3)oc12`: the pIC50 in assay [1] is 5.36.

The molecule `O=c1c(O)c(-c2ccc(O)c(O)c2)oc2cc(O)cc(O)c12` [QUERCETIN] showed a pIC50 in assay [1] of 4.96. In the case of `CC(C)=CCC/C(C)=C/Cc1c(O)cc(O)c2c(=O)c(O)c(-c3ccc(O)c(O)c3)oc12`, the inhibition entry with Saccharomyces cerevisiae [4] is “Active”. This molecule also showed a pIC50 in assay [1] of 5.94. `COc1ccc(-c2coc3c(C/C=C(\C)CCC=C(C)C)c(OC)cc(O)c3c2=O)cc1`: in assay [1], the pIC50 was below 4.00. As to `COc1ccc(-c2coc3c(CC=C(C)C)c(OC)cc(O)c3c2=O)cc1`, in assay [1], the pIC50 was below 4.00.

`COc1ccc(-c2coc3c(CC=C(C)C)c(OC)cc(OC)c3c2=O)cc1` had a pIC50 in assay [1] below 4.00. Molecule `C[C@H]1O[C@H](O[C@H]2[C@H](O)[C@@H](O)[C@@H](O[C@H]3[C@H](O)[C@@H](O)C(O)O[C@@H]3CO)O[C@@H]2CO)[C@H](O)[C@@H](O)[C@@H]1N[C@H]1C=C(CO)[C@@H](O)[C@H](O)[C@H]1O` (stereo partly drawn) [ACARBOSE] gave a pIC50 in assay [1] of 4.29.

For the molecule `CC(C)=CCC/C(C)=C/Cc1c(O)cc(O)c2c(=O)c(-c3ccc(O)cc3)coc12`, in assay [1], the pIC50 is 5.20. Moreover, the inhibition result in the assay with Saccharomyces cerevisiae [5] is “Active”.
